Data taken from ChEMBL document CHEMBL1154276, “Discovery of highly potent novel antifungal azoles by structure-based rational design” (2009).
Values after ≈ are worked out from the molar mass of the structure shown.

Assays:
Type in all cases: functional
[1] = system: Candida albicans; experiment: Antifungal activity against Candida albicans by serial dilution method after 24 hrs
[2] = system: Candida tropicalis; experiment: Antifungal activity against Candida tropicalis by serial dilution method after 24 hrs
[3] = system: Cryptococcus neoformans; experiment: Antifungal activity against Cryptococcus neoformans by serial dilution method after 72 hrs
[4] = system: Trichophyton rubrum; experiment: Antifungal activity against Trichophyton rubrum by serial dilution method after 7 days; conditions: 168 h
[5] = system: Aspergillus fumigatus; experiment: Antifungal activity against Aspergillus fumigatus by serial dilution method after 7 days; conditions: 168 h
[6] = system: Nannizzia gypsea; experiment: Antifungal activity against Microsporum gypseum by serial dilution method […]
[7] = system: Cryptococcus neoformans; experiment: Selectivity ratio of compound MIC80 to voriconazole MIC80 for Cryptococcus neoformans

SMILES | MIC80 [1] [µg/mL] | MIC80 [2] [µg/mL] | MIC80 [3] [µg/mL] | MIC80 [4] [µg/mL] | MIC80 [5] [µg/mL] | MIC80 [6] [µg/mL] | Selectivity ratio [7]
CN(CCCCOc1ccc(N)cc1)CC(O)(Cn1cncn1)c1ccc(F)cc1F (centres undefined) | 0.0625 (≈ 0.145 µM) | 0.0156 (≈ 0.0362 µM) | 0.25 (≈ 0.579 µM) | 1 (≈ 2.32 µM) | > 64 | 0.25 (≈ 0.579 µM) | 
CN(CCCCOc1ccc(Cl)cc1)CC(O)(Cn1cncn1)c1ccc(F)cc1F (centres undefined) | 0.001 (≈ 0.00222 µM) | 0.001 (≈ 0.00222 µM) | 0.0156 (≈ 0.0346 µM) | 0.0625 (≈ 0.139 µM) | 4 (≈ 8.87 µM) | 0.0156 (≈ 0.0346 µM) | 
CN(CCCCOc1ccc(OCc2ccccc2)cc1)CC(O)(Cn1cncn1)c1ccc(F)cc1F (centres undefined) | 0.0156 (≈ 0.0299 µM) | 0.0156 (≈ 0.0299 µM) | 0.0156 (≈ 0.0299 µM) | 0.0625 (≈ 0.12 µM) | 32 (≈ 61.2 µM) | 0.0156 (≈ 0.0299 µM) | 
CCC(C)n1ncn(-c2ccc(N3CCN(c4ccc(OCC5COC(Cn6cncn6)(c6ccc(Cl)cc6Cl)O5)cc4)CC3)cc2)c1=O (centres undefined) [ITRACONAZOLE] | 0.125 (≈ 0.177 µM) | 0.0156 (≈ 0.0221 µM) | 0.5 (≈ 0.709 µM) | 0.125 (≈ 0.177 µM) | 2 (≈ 2.83 µM) | 0.125 (≈ 0.177 µM) | 
CN(CCCCOc1ccccc1Br)CC(O)(Cn1cncn1)c1ccc(F)cc1F (centres undefined) | 0.0156 (≈ 0.0315 µM) | 0.0156 (≈ 0.0315 µM) | 0.004 (≈ 0.00807 µM) | 0.0625 (≈ 0.126 µM) | > 64 | 0.0625 (≈ 0.126 µM) | 4
CN(CCCCOc1cccc(N)c1)CC(O)(Cn1cncn1)c1ccc(F)cc1F (centres undefined) | 0.0156 (≈ 0.0362 µM) | 0.0156 (≈ 0.0362 µM) | 0.25 (≈ 0.579 µM) | 0.25 (≈ 0.579 µM) | > 64 | 0.0625 (≈ 0.145 µM) | 
CN(CCCCOc1ccc(F)cc1)CC(O)(Cn1cncn1)c1ccc(F)cc1F (centres undefined) | 0.0156 (≈ 0.0359 µM) | 0.004 (≈ 0.00921 µM) | 0.0625 (≈ 0.144 µM) | 0.0156 (≈ 0.0359 µM) | 16 (≈ 36.8 µM) | 0.0625 (≈ 0.144 µM) | 
Cc1cccc(OCCCCN(C)CC(O)(Cn2cncn2)c2ccc(F)cc2F)c1 (centres undefined) | 0.0156 (≈ 0.0362 µM) | 0.0156 (≈ 0.0362 µM) | 0.0625 (≈ 0.145 µM) | 0.0625 (≈ 0.145 µM) | 64 (≈ 149 µM) | 0.0625 (≈ 0.145 µM) | 
CN(CCCCOc1cccc(Br)c1)CC(O)(Cn1cncn1)c1ccc(F)cc1F (centres undefined) | 0.0625 (≈ 0.126 µM) | 0.001 (≈ 0.00202 µM) | 0.0625 (≈ 0.126 µM) | 0.0625 (≈ 0.126 µM) | 64 (≈ 129 µM) | 0.0156 (≈ 0.0315 µM) | 
CN(CCCCOc1ccccc1[N+](=O)[O-])CC(O)(Cn1cncn1)c1ccc(F)cc1F (centres undefined) | 0.0625 (≈ 0.135 µM) | 0.0625 (≈ 0.135 µM) | 0.25 (≈ 0.542 µM) | 0.0625 (≈ 0.135 µM) | > 64 | 0.0625 (≈ 0.135 µM) | 
CN(CCCCOc1ccccc1N)CC(O)(Cn1cncn1)c1ccc(F)cc1F (centres undefined) | 0.0625 (≈ 0.145 µM) | 0.0156 (≈ 0.0362 µM) | 1 (≈ 2.32 µM) | 1 (≈ 2.32 µM) | > 64 | 0.25 (≈ 0.579 µM) | 
CN(CCCCOc1ccc(OC(F)(F)F)cc1)CC(O)(Cn1cncn1)c1ccc(F)cc1F (centres undefined) | 0.0156 (≈ 0.0312 µM) | 0.004 (≈ 0.00799 µM) | 0.0625 (≈ 0.125 µM) | 0.0156 (≈ 0.0312 µM) | > 64 | 0.0625 (≈ 0.125 µM) | 
Cc1ccc(OCCCCN(C)CC(O)(Cn2cncn2)c2ccc(F)cc2F)cc1 (centres undefined) | 0.0156 (≈ 0.0362 µM) | 0.004 (≈ 0.00929 µM) | 0.0625 (≈ 0.145 µM) | 0.0156 (≈ 0.0362 µM) | 16 (≈ 37.2 µM) | 0.0625 (≈ 0.145 µM) | 
CN(CCCCOc1ccc([N+](=O)[O-])cc1)CC(O)(Cn1cncn1)c1ccc(F)cc1F (centres undefined) | 0.001 (≈ 0.00217 µM) | 0.004 (≈ 0.00867 µM) | 0.0156 (≈ 0.0338 µM) | 0.0625 (≈ 0.135 µM) | 64 (≈ 139 µM) | 0.0156 (≈ 0.0338 µM) | 
COc1ccc(OCCCCN(C)CC(O)(Cn2cncn2)c2ccc(F)cc2F)cc1 (centres undefined) | 0.0156 (≈ 0.0349 µM) | 0.004 (≈ 0.00896 µM) | 0.0625 (≈ 0.14 µM) | 0.0156 (≈ 0.0349 µM) | 16 (≈ 35.8 µM) | 0.0625 (≈ 0.14 µM) | 
OC(Cn1cncn1)(Cn1cncn1)c1ccc(F)cc1F [FLUCONAZOLE] | 0.25 (≈ 0.816 µM) | 1 (≈ 3.27 µM) | 1 (≈ 3.27 µM) | 0.25 (≈ 0.816 µM) | > 64 | 1 (≈ 3.27 µM) | 
CN(CCCCOc1ccc(Br)cc1)CC(O)(Cn1cncn1)c1ccc(F)cc1F (centres undefined) | 0.001 (≈ 0.00202 µM) | 0.001 (≈ 0.00202 µM) | 0.004 (≈ 0.00807 µM) | 0.0156 (≈ 0.0315 µM) | 4 (≈ 8.07 µM) | 0.0156 (≈ 0.0315 µM) | 4
CN(CCCCOc1ccccc1Cl)CC(O)(Cn1cncn1)c1ccc(F)cc1F (centres undefined) | 0.0156 (≈ 0.0346 µM) | 0.0156 (≈ 0.0346 µM) | 0.0156 (≈ 0.0346 µM) | 0.0625 (≈ 0.139 µM) | > 64 | 0.0625 (≈ 0.139 µM) | 
CN(CCCCOc1ccc(C(C)(C)C)cc1)CC(O)(Cn1cncn1)c1ccc(F)cc1F (centres undefined) | 0.0625 (≈ 0.132 µM) | 0.0625 (≈ 0.132 µM) | 0.25 (≈ 0.529 µM) | 0.0625 (≈ 0.132 µM) | > 64 | 0.0625 (≈ 0.132 µM) | 
Cc1ccccc1OCCCCN(C)CC(O)(Cn1cncn1)c1ccc(F)cc1F (centres undefined) | 0.0625 (≈ 0.145 µM) | 0.0156 (≈ 0.0362 µM) | 0.0156 (≈ 0.0362 µM) | 0.0625 (≈ 0.145 µM) | > 64 | 0.0625 (≈ 0.145 µM) | 
CN(CCCCOc1cccc([N+](=O)[O-])c1)CC(O)(Cn1cncn1)c1ccc(F)cc1F (centres undefined) | 0.0156 (≈ 0.0338 µM) | 0.004 (≈ 0.00867 µM) | 0.0625 (≈ 0.135 µM) | 0.0625 (≈ 0.135 µM) | 64 (≈ 139 µM) | 0.0625 (≈ 0.135 µM) | 
C[C@@H](c1ncncc1F)[C@](O)(Cn1cncn1)c1ccc(F)cc1F [VORICONAZOLE] | 0.0156 (≈ 0.0447 µM) | 0.001 (≈ 0.00286 µM) | 0.0156 (≈ 0.0447 µM) | 0.0156 (≈ 0.0447 µM) | 0.25 (≈ 0.716 µM) | 0.0156 (≈ 0.0447 µM) | 
